In PMC4627284, “High-throughput simultaneous screen and counterscreen identifies homoharringtonine as synthetic lethal with von Hippel-Lindau loss in renal cell carcinoma” (Oncotarget, 2015):
Read-outs that look alike come from different tables or passages of the source.

Key:
[1] = cited from earlier work
[2] = Pharmacokinetic analysis after a single dose by oral gavage; format: in vivo, NOD/SCID mice; details: for AUC(0-inf) / Cmax / Tmax / half-life / Vd/F: female, NOD/SCID, mouse, plasma; for half-life: read-out: Terminal t½ (converted); for Vd/F: read-out: Vz/F
Description: We evaluated PK parameters after administration of a single dose of HHT by oral gavage to mice of 0.4 mg/kg, 0.7 mg/kg and 2 mg/kg (Table 1). […] Treatment with 0.4 mg/kg HTT by gavage most closely approximated human exposures. […] Given our in vitro studies, we sought to sustain 50 nM drug levels and mice were dosed with 0.7 mg/kg HHT given by gavage twice daily.
Female NOD/SCID mice (6-7 weeks) were administered homoharringtonine (HHT) by oral gavage. DMSO was used to wet the compound which was subsequently diluted in normal saline (pH 7.2) prior to administration (final DMSO < 5%). Animals were sacrificed in duplicate by inhalation overdose of CO2 at varying times post-dose and bled by cardiac puncture using acidified citrate dextrose (ACD) as the anticoagulant. Plasma was isolated after centrifugation at 9,600 x g for 10 minutes at 4°C. Protein was precipitated from 100 μl of plasma with 100 μl of acetonitrile containing 100 ng/ml of n-benzylbenzamide, which was used as an internal standard (IS), and 0.2% formic acid. After extensive vortexing, samples were incubated for 10 minutes at RT and spun twice at 16,100 x g for 5 minutes. The supernatant was evaluated by LC-MS/MS using a Shimadzu (Columbia, MD) Prominence LC coupled to an AB Sciex (Framingham, MA) 3200 Qtrap mass spectrometer. Extraction conditions were optimized prior to PK analysis for efficient and reproducible recovery over a three log range of concentrations. Analytical standards and quality control samples were prepared in a similar fashion by spiking commercial CD-1 mouse plasma (Bioreclamation, Westbury, NY) with known quantities of HHT. Chromatography conditions were as follows: an Agilent (Santa Clara, CA) C18 XDB, 5 micron packing, 50 × 4.6 mm size column was used for reverse phase chromatography. Buffer A consisted of dH2O + 0.1% formic acid and Buffer B consisted of methanol + 0.1% formic acid. Gradient conditions utilized were: 0.01-1.0 min 3% B, 1.0-1.5 min gradient to 100% B,1.5-3.0 min 100% B, 3.0-3.1 min gradient to 3% B, 3.1-4.1 min 3% B. HHT was detected as the 546.3 to 298.3 transition, and the IS (n-benzylbenzamide) as the 212.1 to 91.1 transition. Data were analyzed using Analyst software (AB Sciex.) A value 3x above the signal obtained in the blank plasma was designated as the limit of detection (LOD). The limit of quantitation (LOQ) was defined as the lowest concentration on the standard curve at which back calculation yielded a concentration within 20% of the theoretical value and above the LOD signal. The LOQ for HHT was 0.5 ng/ml. Pharmacokinetic properties were evaluated using the noncompartmental analysis tool in WinNonlin (Certara, Corp., St. Louis, MO). Sparse sampling was used for data analysis. Terminal half-life was calculated as the ln(2)/λz where λz is a first order rate constant associated with the terminal (log-linear) portion of the curve. It is estimated by linear regression of time vs. log concentration by the software for three or more of the final nonzero data points. Tmax (time to maximal drug concentration) and Cmax (maximal drug concentration) were determined by visual inspection. Area under the concentration time curve (AUCinf) from time 0 to infinity was determined by linear trapezoidal analysis. Apparent Volume of Distribution (Vz/F) is based on the terminal phase and is calculated as Dose/λz*AUCinf while Apparent Clearance (CL/F) is calculated as Dose/AUCinf. Calculation of Absolute Vz and CL requires knowledge of oral bioavailability (F) which is calculated as AUCoral/AUCiv X Dose iv/Doseoral but was not determined here because an IV PK was not performed.

[3] = test system: VHL-reconstituted 786-O cells; assay: Cell death by trypan blue exclusion assay; format: cell-based, human; details: 36 hours
Description: (§1) Figure 2 Homoharringtonine (HHT) preferentially induces cell death in VHL-deficient 786-O cells A. 786-O cells with VHL mutation (green) or with VHL-reconstituted (red) were treated with different concentrations of HHT (0, 25, 50, or 100 nM) for 0, 6, 12, 24, 36, or 48 hours, and cell death was measured by trypan blue exclusion assay (n = 3 for each concentration and time point; *p < 0.05, **p < 0.001, ***p < 0.0001 between 786-O EV cells and 786-O with VHL reconstituted at the same concentration and time point). B. Western blot analysis of 786-O EV^GFP (EV) or VHL^mCh (VHL) cells treated with 100 nM HHT for 0, 3, 6, 12, or 24 hours. Blots were probed for Bcl-xL and Caspase 9, and α-Tubulin as loading control. Arrow indicates the cleaved Caspase 9 product.

[4] = test system: VHL-deficient 786-O cells; assay: Cell death by trypan blue exclusion assay; format: cell-based, human; details: 36 hours
Description: as §1

## COC(=O)C[C@](O)(CCCC(C)(C)O)C(=O)O[C@@H]1C(OC)=C[C@]23CCCN2CCc2cc4c(cc2[C@H]13)OCO4 [HHT, homoharringtonine]
[1]; dosed subcutaneously
  half-life in humans: 7 h
[1]; treatment of CML
  plasma concentration reached in patients: ~ 50 nM
[2]; 0.4 mg/kg oral gavage, mice
  Cl/F: 32.7 mL/h
  AUC(0-inf): 251 ng·h/mL
  Cmax: 28.8 ng/mL
  Tmax: 0.17 h
  half-life: 1.86 h
  Vd/F: 0.0877 L
[2]; 0.7 mg/kg oral gavage, mice
  Cl/F: 30.5 mL/h
  AUC(0-inf): 440 ng·h/mL
  Cmax: 57.8 ng/mL
  Tmax: 0.17 h
  half-life: 2.8 h
  Vd/F: 0.123 L
[2]; 0.7 mg/kg oral gavage, mice, 50 nM equivalent to 27.3 ng/mL
  time HHT concentrations above 50 nM were sustained: ~ 6 hours
[2]; 2 mg/kg oral gavage, mice
  Cl/F: 46.6 mL/h
  AUC(0-inf): 905 ng·h/mL
  Cmax: 97.2 ng/mL
  Tmax: 1.5 h
  half-life: 6.74 h
  Vd/F: 0.453 L
[2]; two lower doses (0.4 and 0.7 mg/kg), first time point sampled
  time at which Cmax was reached: 10 min
[3]; 50 nM
  VHL-reconstituted cells dead: < 10%
[3]; 100 nM
  dead VHL-reconstituted cells: less than 25%
[4]; 50 nM
  VHL-deficient cells killed: 30-40%
[4]; 100 nM
  dead VHL-deficient cells: 50-60%
